Data reported in the NIST ThermoML archive (doi:10.1016/j.jct.2007.07.005).

Assay: xn = mol fraction of the nth substance listed
Settings: Fluid (supercritical or subcritical phases), vibrating tube

CCCCCO [pentan-1-ol] + O=C=O
Settings | mass density [kg/m3]
323.05 K, 13025 kPa, x2 = 0.0816 | 806.04
323.05 K, 13028 kPa, x2 = 0.8067 | 814.77
323.05 K, 14019 kPa, x2 = 0.3624 | 822.92
323.05 K, 14021 kPa, x2 = 0.0816 | 806.82
323.05 K, 14024 kPa, x2 = 0.8067 | 820.63
323.05 K, 14024 kPa, x2 = 0.9757 | 722.69
323.05 K, 14031 kPa, x2 = 0.4651 | 829.31
323.05 K, 14965 kPa, x2 = 0.9757 | 740.5
323.05 K, 14990 kPa, x2 = 0.4651 | 830.68
323.05 K, 15001 kPa, x2 = 0.8067 | 825.93
323.05 K, 15006 kPa, x2 = 0.3624 | 823.89
323.05 K, 15017 kPa, x2 = 0.0816 | 807.57
323.05 K, 16002 kPa, x2 = 0.3624 | 824.89
323.05 K, 16018 kPa, x2 = 0.9757 | 757.4
323.05 K, 16021 kPa, x2 = 0.0816 | 808.32
323.05 K, 16027 kPa, x2 = 0.4651 | 832.14
323.05 K, 16066 kPa, x2 = 0.8067 | 831.24
323.05 K, 17005 kPa, x2 = 0.0816 | 809.07
323.05 K, 17018 kPa, x2 = 0.4651 | 833.51
323.05 K, 17021 kPa, x2 = 0.3624 | 825.87
323.05 K, 17021 kPa, x2 = 0.8067 | 835.7
323.05 K, 17052 kPa, x2 = 0.9757 | 771.8
323.05 K, 17994 kPa, x2 = 0.4651 | 834.85
323.05 K, 18001 kPa, x2 = 0.3624 | 826.81
323.05 K, 18002 kPa, x2 = 0.8067 | 840
323.05 K, 18028 kPa, x2 = 0.9757 | 783.78
323.05 K, 18049 kPa, x2 = 0.0816 | 809.83
323.05 K, 18975 kPa, x2 = 0.0816 | 810.52
323.05 K, 19012 kPa, x2 = 0.8067 | 844.21
323.05 K, 19034 kPa, x2 = 0.3624 | 827.81
323.05 K, 19035 kPa, x2 = 0.9757 | 794.96
323.05 K, 19057 kPa, x2 = 0.4651 | 836.29
323.05 K, 19998 kPa, x2 = 0.3624 | 828.72
323.05 K, 20002 kPa, x2 = 0.9757 | 804.8
323.05 K, 20009 kPa, x2 = 0.4651 | 837.54
323.05 K, 20044 kPa, x2 = 0.8067 | 848.26
323.05 K, 20047 kPa, x2 = 0.0816 | 811.3
323.05 K, 20997 kPa, x2 = 0.0816 | 811.98
323.05 K, 21033 kPa, x2 = 0.3624 | 829.67
323.05 K, 21034 kPa, x2 = 0.4651 | 838.89
323.05 K, 21046 kPa, x2 = 0.8067 | 851.97
323.05 K, 21049 kPa, x2 = 0.9757 | 814.6
323.05 K, 21991 kPa, x2 = 0.0816 | 812.7
323.05 K, 22013 kPa, x2 = 0.3624 | 830.58
323.05 K, 22017 kPa, x2 = 0.4651 | 840.19
323.05 K, 22017 kPa, x2 = 0.8067 | 855.5
323.05 K, 22020 kPa, x2 = 0.9757 | 823
323.05 K, 22767 kPa, x2 = 0.9757 | 829.12
323.05 K, 22970 kPa, x2 = 0.8067 | 858.77
323.05 K, 22997 kPa, x2 = 0.3624 | 831.49
323.05 K, 23022 kPa, x2 = 0.4651 | 841.47
323.05 K, 23054 kPa, x2 = 0.0816 | 813.46
323.05 K, 23901 kPa, x2 = 0.4651 | 842.61
323.05 K, 23987 kPa, x2 = 0.0816 | 814.12
323.05 K, 24062 kPa, x2 = 0.3624 | 832.47
323.05 K, 24707 kPa, x2 = 0.3624 | 833.04
323.05 K, 25014 kPa, x2 = 0.0816 | 814.87
323.06 K, 11010 kPa, x2 = 0.8573 | 775.4
323.06 K, 11028 kPa, x2 = 0.9216 | 732.55
323.06 K, 12011 kPa, x2 = 0.9216 | 751.44
323.06 K, 12019 kPa, x2 = 0.8573 | 787.14
323.06 K, 13011 kPa, x2 = 0.8573 | 796.54
